# Laboratory results reported in ChEMBL document CHEMBL1201862, “PubChem BioAssay data set” (2004).
#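 96-well plates; 48 h exposure; 5 concentrations. Endpoints by linear interpolation between flanking doses. Not reached: highest tested concentration assigned. Here, GI50 denotes the concentration required for 50% inhibition of growth.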 Active and inactive are the calls of the source. Cut-off read from the data, not from the text of the source: active = GI50 up to about 1.1 µM and inactive = higher.
# Assays:
# Test in all cases: DTP human tumour cell line panel, 48 h
# OVCAR-5 = tested on: OVCAR-5
# SF-295 = tested on: SF-295
# HL-60 = tested on: HL-60
# HCC 2998 = tested on: HCC 2998
# RPMI-8226 = tested on: RPMI-8226
# SNB-19 = tested on: SNB-19
# TK-10 = tested on: TK-10
# RXF 393 = tested on: RXF 393
# SK-MEL-2 = tested on: SK-MEL-2
# IGROV-1 = tested on: IGROV-1
# NCI/ADR-RES = tested on: NCI/ADR-RES
# LOX IMVI = tested on: LOX IMVI
# ACHN = tested on: ACHN
# T47D = tested on: T47D
# HCT-116 = tested on: HCT-116
# UO-31 = tested on: UO-31
# SF-268 = tested on: SF-268
# SN12C = tested on: SN12C
# MDA-N = tested on: MDA-N
# Malme-3M = tested on: Malme-3M
# Hs-578T = tested on: Hs-578T
# OVCAR-3 = tested on: OVCAR-3
# OVCAR-8 = tested on: OVCAR-8
# MOLT-4 = tested on: MOLT-4
# 786-0 = tested on: 786-0
# SK-MEL-28 = tested on: SK-MEL-28
# MCF7 = tested on: MCF7
# U-251 = tested on: U-251
# SK-MEL-5 = tested on: SK-MEL-5
# HOP-92 = tested on: HOP-92
# MDA-MB-231 = tested on: MDA-MB-231
# K562 = tested on: K562
# SF-539 = tested on: SF-539
# CAKI-1 = tested on: CAKI-1
# HOP-62 = tested on: HOP-62
# EKVX = tested on: EKVX
# CCRF-CEM = tested on: CCRF-CEM
# MDA-MB-435 = tested on: MDA-MB-435
# KM12 = tested on: KM12
# NCI-H460 = tested on: NCI-H460
# SR = tested on: SR
# SK-OV-3 = tested on: SK-OV-3
# BT-549 = tested on: BT-549
# A549 = tested on: A549
# COLO 205 = tested on: COLO 205
# SW-620 = tested on: SW-620
# PC-3 = tested on: PC-3
# SNB-75 = tested on: SNB-75
# HCT-15 = tested on: HCT-15
# UACC-257 = tested on: UACC-257
# UACC-62 = tested on: UACC-62
# NCI-H23 = tested on: NCI-H23
# NCI-H522 = tested on: NCI-H522
# OVCAR-4 = tested on: OVCAR-4
# HT-29 = tested on: HT-29
smiles,measurement,setting,value
CC1(C)C=Cc2c(cc(O)c3c(=O)c4cc(Cl)ccc4[nH]c23)O1,GI50,OVCAR-5,1.91 µM (inactive)
same,GI50,SF-295,2.84 µM (inactive)
same,GI50,HL-60,2.84 µM (inactive)
same,GI50,HCC 2998,3.62 µM (inactive)
same,GI50,RPMI-8226,2.29 µM (inactive)
same,GI50,SNB-19,2.62 µM (inactive)
same,GI50,TK-10,4.5 µM (inactive)
same,GI50,RXF 393,3.89 µM (inactive)
same,GI50,SK-MEL-2,2.69 µM (inactive)
same,GI50,IGROV-1,5.31 µM (inactive)
same,GI50,NCI/ADR-RES,1.68 µM (inactive)
same,GI50,LOX IMVI,3.29 µM (inactive)
same,GI50,ACHN,2.42 µM (inactive)
same,GI50,T47D,3.69 µM (inactive)
same,GI50,HCT-116,2.99 µM (inactive)
same,GI50,UO-31,2.16 µM (inactive)
same,GI50,SF-268,3.86 µM (inactive)
same,GI50,SN12C,3.24 µM (inactive)
same,GI50,MDA-N,2.62 µM (inactive)
same,GI50,Malme-3M,2.24 µM (inactive)
same,GI50,Hs-578T,0.161 µM (active)
same,GI50,OVCAR-3,0.469 µM (active)
same,GI50,OVCAR-8,3.98 µM (inactive)
same,GI50,MOLT-4,2.54 µM (inactive)
same,GI50,786-0,3.84 µM (inactive)
same,GI50,SK-MEL-28,4 µM (inactive)
same,GI50,MCF7,2.88 µM (inactive)
same,GI50,U-251,2.74 µM (inactive)
same,GI50,SK-MEL-5,1.92 µM (inactive)
same,GI50,HOP-92,2.52 µM (inactive)
same,GI50,MDA-MB-231,3.33 µM (inactive)
same,GI50,K562,1.81 µM (inactive)
same,GI50,SF-539,4.13 µM (inactive)
same,GI50,CAKI-1,3.94 µM (inactive)
same,GI50,HOP-62,4.08 µM (inactive)
same,GI50,EKVX,0.469 µM (active)
same,GI50,CCRF-CEM,3.08 µM (inactive)
same,GI50,MDA-MB-435,3.35 µM (inactive)
same,GI50,KM12,2.2 µM (inactive)
same,GI50,NCI-H460,1.98 µM (inactive)
same,GI50,SR,3.24 µM (inactive)
same,GI50,SK-OV-3,2.72 µM (inactive)
same,GI50,BT-549,2.63 µM (inactive)
same,GI50,A549,3.1 µM (inactive)
same,GI50,COLO 205,4.43 µM (inactive)
same,GI50,SW-620,3.55 µM (inactive)
same,GI50,PC-3,2.04 µM (inactive)
same,GI50,SNB-75,4.03 µM (inactive)
same,GI50,HCT-15,3.27 µM
same,GI50,UACC-257,2.87 µM (inactive)
same,GI50,UACC-62,2.58 µM (inactive)
same,GI50,NCI-H23,2.3 µM (inactive)
same,GI50,NCI-H522,3.29 µM (inactive)
same,GI50,OVCAR-4,3.24 µM (inactive)
same,GI50,HT-29,2.4 µM (inactive)
